The record followed here is patent US5580552A, “7-glycosyloxybenzopyran derivative and antiallergic agent containing the derivative as active ingredient” (priority 1994, dated 1996).

The test system of assay [1] is experimental asthma model (airway resistance). Kind of assay: Effect on experimental asthma model in guinea pigs (airway resistance). The class given is in vivo, guinea pigs (male hartley). The conditions noted are these: Cavia porcellus, 0.5 h; for inhibition in vivo at 50 mg/kg: po, 50 mg/kg oral (TABLE 6). As for the experimental part:
Effect on experimental asthma model in guinea pigs
The asthma is typical allergic disease and we carried out this pharmacological test by well known experimental asthma model in guinea pigs in order to comfirm that the compounds of the present invention suppress the asthma. In the following, the method of the pharmacological test will be explained.
Method: Male hartley guinea pigs were immunized by intraperitoneal injection of saline (1ml) containing 5 mg of ovalbumine (OVA) three times at interval of one week. 2 weeks after final immunization, the animals were challenged by inhalation of 1% OVA-saline solution for 1 minute and then the airway resistance of the animals were measured for 30 minutes with PULMOS-1 (Medical Interface Project Station Inc.) after the inhalation. The compounds of the present invention (test compounds) suspended in 0.5% CMCNa were given orally at a dose of 50 mg/kg. As positive control group, Disodium Cromoglicate (DSCG), well known anti-allergic agent, in saline were injected at a dose of 20 mg/kg into the vein of the animals. As vehicle control group, only 0.5% CMCNa solution were given orally. The inhibition (%) of the airway resistance in vehicle control group was calculated according to equation 5 and the result was shown in TABLE 6. Each experimental group consisted of 5 guinea pigs. [formula]
A: Maximum airway resistance in vehicle control group
B: Maximum airway resistance in test compounds group or positive control group

The test system of assay [2] is contact dermatitis induced by picryl chloride. Kind of assay: Effect on contact dermatitis induced by picryl chloride in mice. The class given is in vivo. As to conditions: for inhibition in vivo at 50 mg/kg: 50 mg/kg oral, 1 hour before and 16 hours after challenge, 24 hours after challenge. The procedure:
Effect on contact dermatitis induced by picryl chloride in mice
The delayed type hypersensitization is inhibited by steroid drugs,but can not be effected by known anti-allergic agents. In the following, the method of the pharmacological test will be explained.
Method: Mice, shaved their abdominal skin on previous day, were immunized by applying 0.1 ml of acetone containing 7 mg of picryl chloride to the skin of the abdomen. 7 days after immunization, the thickness of the ear was measured with a dial thickness gauge, then mice were challenged by painting 5 μl of 1% picryl chloride olive oil solution to each side skin of left ear. 24 hours after challenge, the thickness of the left ear was measured again and the increase (%) of thickness was calculated according to equation 2. The compounds of the present invention (test compounds) suspended in 0.5% CMCNa were forcibly administered orally at a dose of 50 mg/kg at 1 hour before and 16 hours after challenge. As vehicle control group, only 0.5% CMCNa solution were administered orally, and as positive control group, Prednisolone, steroid hormone, and Tranilast were administered orally at the doses of 10 mg/kg and 100 mg/kg, respectively.
Increase (%)=(A-B)/B×100 (Equation 2)
A: thickness of the ear at 24 hours after challenge
B: thickness of the ear before challenge
Inhibition (%)=(C-D)/C×100 (equation 3)
C: The increase (%) in vehicle control group
D: The increase (%) in test compounds group or positive control group

Assay [3] concerns homologous passive cutaneous anaphylaxis (PCA) reaction. Kind of assay: Effect on homologous passive cutaneous anaphylaxis (PCA) reaction in rats. The class given is in vivo, rats (male wistar). As to conditions: Rattus norvegicus, po, 0.5 h; for inhibition in vivo at 50 mg/kg: 50 mg/kg oral, 1 hour before challenge (TABLE 2). The procedure: Effect on homologous passive cutaneous anaphylaxis (PCA) reaction in rats.
This experimental animal model is caused by immediate type allergic reaction namely, antigen-antibody reaction. In the following, the method of this pharmacological test will be explained.
Method: Male wistar rats (9 weeks old) were intradermally administered 0.05 ml of anti-serum against dinitrophenylated ascaris (DNP-As) into two sites on the shaved dorsal skin. 48 hours later, 7-glycosyloxybenzopyran derivatives (test compounds) suspended in 0.5% sodium carboxymethylcellulose (CMCNa) were given orally at a dose of 50 mg/kg to the animals. One hour after administration of Test compounds, the animals were induced anaphylaxis by injection of saline (1 ml) dissolving 5 mg of Evans Blue and 1 mg of Trinitrophenylated ascaris (TNP-As) into the tail vein of the animals. 30 minutes after induction of anaphylaxis, animals were anesthetized by ether and killed by bleeding, and were flayed dorsal skin. The determination of extravasated dye was performed according to the method of Katayama et al. (Microbiol. Immunol., Vol.22, P 89-101, 1978). As vehicle control group, only 0.5% CMCNa solution was administered orally, and as positive control group, Tranilast suspended in 0.5% CMCNa was administered orally at a dose of 100 mg/kg to the animals with the same method as the test compounds groups. Each experimental group consisted of 5 rats. [formula]

The mark [4] stands for this setting: Mus musculus, po, 24 h, read-out: Inhibition (%) against the increase of ear thickness.

As for `O=C(O)c1cc(=O)c2c(OCC(O)COc3cccc4oc(C(=O)O)cc(=O)c34)cccc2o1` [DSCG, Disodium Cromoglicate, reference compound], in assay [1] (iv, positive control DSCG, 20 mg/kg into the vein (TABLE 6)), the inhibition in vivo at 20 mg/kg came to 51.2%.

`C[C@]12C=CC(=O)C=C1CC[C@@H]1[C@@H]2[C@@H](O)C[C@@]2(C)[C@H]1CC[C@]2(O)C(=O)CO` [Prednisolone, reference compound]: the inhibition in vivo at 10 mg/kg in assay [2] (setting [4]) is 63.7%.

In the case of `COc1ccc(/C=C/C(=O)Nc2ccccc2C(=O)O)cc1OC` [Tranilast, reference compound], the inhibition in vivo at 100 mg/kg is 54.6% in assay [3] (positive control, 100 mg/kg oral (TABLE 2)) and 4.3% in assay [2] (Mus musculus, po, 24 h, positive control Tranilast, 100 mg/kg oral, read-out: Inhibition (%) against the increase of ear thickness). For the same compound, the “inhibition of delayed type hypersensitization” value in assay [2] (Tranilast, 100 mg/kg oral) was “did not inhibit delayed type hypersensitization”.

Regarding `COc1c(O)c2ccc(O[C@@H]3O[C@H](CO)[C@@H](O)[C@H](O)[C@H]3O)cc2oc1=O` [compound 3, 3-methoxy-4-hydroxy-7-(β-D-glucopyranosyloxy)-2H-1-benzopyran-2-one], the inhibition in vivo at 50 mg/kg in assay [3] was determined as 53.1%; in assay [1], 63.1%; in assay [2] (setting [4]) it was 51.3%.

As to `COc1c(O)c2ccc(O[C@H]3O[C@H](CO)[C@@H](O)[C@H](O)[C@@H]3O)cc2oc1=O` [compound 8, 3-methoxy-4-hydroxy-7-(α-D-mannopyranosyloxy)-2H-1-benzopyran-2-one], the results for the inhibition in vivo at 50 mg/kg in assay [3], in assay [1] and in assay [2] (setting [4]) were 49.2%, 59.2% and 50.3%, respectively.

Turning to `COc1c(O)c2ccc(O[C@@H]3O[C@H](CO)[C@H](O)[C@H](O)[C@H]3O)cc2oc1=O` [compound 9, 3-methoxy-4-hydroxy-7-(β-D-galactopyranosyloxy)-2H-1-benzopyran-2-one], the inhibition in vivo at 50 mg/kg in assay [3] is 54.5%; in assay [1], 60.3%; in assay [2] (setting [4]), 52.1%.

Take `CC(=O)Oc1c(O)c2ccc(O[C@@H]3O[C@H](CO)[C@@H](O)[C@H](O)[C@H]3O)cc2oc1=O` [compound 11, 3-acetoxy-4-hydroxy-7-(β-D-glucopyranosyloxy)-2H-1-benzopyran-2-one]: the inhibition in vivo at 50 mg/kg in assay [3] is 43.2%; in assay [1], 45.7%; in assay [2] (setting [4]) it was 44.3%.

Consider `CCCCCCOc1c(OC(C)=O)c(=O)oc2cc(O[C@@H]3O[C@H](COC(C)=O)[C@H](OC(C)=O)[C@H](OC(C)=O)[C@H]3OC(C)=O)ccc12` [compound 15, 3-acetoxy-4-hexyloxy-7-(tetra-O-acetyl-β-D-galactopyranosyloxy)-2H-1-benzopyran-2-one], for which the inhibition in vivo at 50 mg/kg in assay [3] came out at 40.1%; in assay [1], 42.1%; in assay [2] (setting [4]), 41.2%.

With `CCCCCCCCOc1c(OC(C)=O)c(=O)oc2cc(O[C@@H]3O[C@H](COC(C)=O)[C@@H](OC(C)=O)[C@H](OC(C)=O)[C@H]3OC(C)=O)ccc12` [compound 16, 3-acetoxy-4-octyloxy-7-(tetra-O-acetyl-β-D-glucopyranosyloxy)-2H-1-benzopyran-2-one], the inhibition in vivo at 50 mg/kg in assay [3] stood at 42.3%; in assay [1] it was 40.2%; in assay [2] (setting [4]) it was 43.5%.

In the case of `CCCCOc1c(O)c(=O)oc2cc(O[C@@H]3O[C@H](CO)[C@H](O)[C@H](O)[C@H]3O)ccc12` [compound 18, 3-hydroxy-4-butoxy-7-(β-D-galactopyranosyloxy)-2H-1-benzopyran-2-one], the figures for the inhibition in vivo at 50 mg/kg in assay [3], in assay [1] and in assay [2] (setting [4]) were 42.5%, 52.3% and 40.2%, respectively.

With `CCCCCCOc1c(O)c(=O)oc2cc(O[C@@H]3O[C@H](CO)[C@@H](O)[C@H](O)[C@H]3O)ccc12` [compound 19, 3-hydroxy-4-hexyloxy-7-(β-D-glucopyranosyloxy)-2H-1-benzopyran-2-one], the values for the inhibition in vivo at 50 mg/kg in assay [3], in assay [1] and in assay [2] (setting [4]) were 44.9%, 65.2% and 47.1%, respectively.

Turning to `CCCCCCOc1c(O)c(=O)oc2cc(O[C@H]3O[C@H](CO)[C@@H](O)[C@H](O)[C@@H]3O)ccc12` [compound 20, 3-hydroxy-4-hexyloxy-7-(α-D-mannopyranosyloxy)-2H-1-benzopyran-2-one], the figures for the inhibition in vivo at 50 mg/kg in assay [3], in assay [1] and in assay [2] (setting [4]) were 42.3%, 55.4% and 45.2%, respectively.

Take `CCCCCCOc1c(O)c(=O)oc2cc(O[C@@H]3O[C@H](CO)[C@H](O)[C@H](O)[C@H]3O)ccc12` [compound 21, 3-hydroxy-4-hexyloxy-7-(β-D-galactopyranosyloxy)-2H-1-benzopyran-2-one]: the values for the inhibition in vivo at 50 mg/kg in assay [3], in assay [1] and in assay [2] (setting [4]) were 45.2%, 63.1% and 48.9%, respectively.

As for `CCCCCCCCOc1c(O)c(=O)oc2cc(O[C@@H]3O[C@H](CO)[C@@H](O)[C@H](O)[C@H]3O)ccc12` [compound 22, 3-hydroxy-4-octyloxy-7-(β-D-glucopyranosyloxy)-2H-1-benzopyran-2-one], the figures for the inhibition in vivo at 50 mg/kg in assay [3], in assay [1] and in assay [2] (setting [4]) were 43.6%, 60.6% and 47.3%, respectively.

For `CCCCCCCCOc1c(O)c(=O)oc2cc(O[C@@H]3O[C@H](CO)[C@H](O)[C@H](O)[C@H]3O)ccc12` [compound 23, 3-hydroxy-4-octyloxy-7-(β-D-galactopyranosyloxy)-2H-1-benzopyran-2-one], the inhibition in vivo at 50 mg/kg in assay [3] worked out at 44.7%; in assay [1], 61.5%; in assay [2] (setting [4]) it was 49.3%.

For the compound `CCCCCCCCOc1c(OCc2ccccc2)c2ccc(O[C@@H]3O[C@H](COCc4ccccc4)[C@@H](OCc4ccccc4)[C@H](OCc4ccccc4)[C@H]3OCc3ccccc3)cc2oc1=O` [compound 35], the inhibition in vivo at 50 mg/kg in assay [3] was 42.2%; in assay [1] it was 38.2%; in assay [2] (setting [4]), 40.5%.

For `CCCCOc1c(O)c2ccc(O[C@@H]3O[C@H](CO)[C@@H](O)[C@H](O)[C@H]3O)cc2oc1=O` [compound 37], the inhibition in vivo at 50 mg/kg worked out at 55.1% in assay [3], 68.2% in assay [1] and 53.9% in assay [2] (setting [4]).

In the case of `CCCCCCOc1c(O)c2ccc(O[C@@H]3O[C@H](CO)[C@@H](O)[C@H](O)[C@H]3O)cc2oc1=O` [compound 38], the inhibition in vivo at 50 mg/kg in assay [3] was determined as 59.3%; in assay [1], 75.5%; in assay [2] (setting [4]), 63.7%.

Turning to `CCCCCCCCOc1c(O)c2ccc(O[C@@H]3O[C@H](CO)[C@@H](O)[C@H](O)[C@H]3O)cc2oc1=O` [compound 39], the inhibition in vivo at 50 mg/kg was 62.2% in assay [3], 77.8% in assay [1] and 65.1% in assay [2] (setting [4]).

For the compound `CCCCCCCCCCOc1c(O)c2ccc(O[C@@H]3O[C@H](CO)[C@@H](O)[C@H](O)[C@H]3O)cc2oc1=O` [compound 40], the inhibition in vivo at 50 mg/kg in assay [3] amounted to 57.3%; in assay [1], 73.1%; in assay [2] (setting [4]), 62.1%.
